What was measured:
ATF4, NOXA = experiment: Immunoblot of whole cell lysates for ATF4 and NOXA; assay type: cell-based; settings: 100 μM TTFA, 24 h, MM cells
citrate synthase = biological target: T1, citrate synthase (Homo sapiens, UniProt O75390); experiment: Citrate synthase (CS) activity assay; assay type: biochemical; settings: TTFA-treated KMS11 cells
T1 construct: Citrate synthase activity assay was measured in 0.3×10^6 cells harvested per sample and washed with PBS; endogenous in cells; host or cells: KMS11 multiple myeloma cells
T1 sequence (O75390 28-466): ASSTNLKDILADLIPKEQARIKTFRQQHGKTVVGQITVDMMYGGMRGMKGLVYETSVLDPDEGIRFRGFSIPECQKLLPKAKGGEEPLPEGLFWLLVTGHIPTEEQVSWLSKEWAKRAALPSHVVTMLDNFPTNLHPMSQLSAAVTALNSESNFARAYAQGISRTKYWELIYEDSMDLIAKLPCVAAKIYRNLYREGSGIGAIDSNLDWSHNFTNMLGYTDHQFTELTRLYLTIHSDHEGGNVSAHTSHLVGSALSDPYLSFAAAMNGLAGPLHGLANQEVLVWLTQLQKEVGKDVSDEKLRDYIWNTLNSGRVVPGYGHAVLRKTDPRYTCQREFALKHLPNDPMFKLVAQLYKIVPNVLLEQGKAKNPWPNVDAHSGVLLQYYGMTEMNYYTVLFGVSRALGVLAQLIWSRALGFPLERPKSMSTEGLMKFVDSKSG
Procedure: Citrate synthase activity assay was measured in 0.3×10^6 cells harvested per sample and washed with PBS. Cells were resuspended in 10 mM Tris (pH 8.5) and 0.1% Triton X-100 assay buffer, containing 300 μM acetyl CoA and 100 μM 5,5′-dithiobis(2-nitrobenzoic acid) (DTNB=molar extinction coefficient 13.6 mM^−1 cm^−1). Reaction was started by the addition of 0.5 mM oxaloacetic acid and change in absorbance recorded at 412 nm wavelength every min for 10 min. SQR, SDH and CS activity measurements were performed with 100 μL sample containing 0.3×10^6 permeabilized cells.

MM cell lines = experiment: Spare respiratory capacity (Seahorse XFe96 stress assay); assay type: cell-based; settings: TTFA treated KMS11 cells
Procedure: Spare capacity in venetoclax-sensitive and venetoclax -resistant cells was determined by subtracting basal OCR from maximal OCR.

[1] = tested on: CD38+ CD45− gated MM cells from myeloma patient bone marrow aspirates; experiment: Ex vivo venetoclax sensitivity of myeloma patient samples, Annexin V staining; assay type: cell-based, human
Procedure: CD38-PE and CD45-APC-Cy7 were used to gate myeloma cells. n=50 biological independent samples.
Bone marrow aspirate samples from 50 MM patients were treated with three doses of venetoclax (0.01, 0.1 and 0.5 μM) or TTFA (100 μM), or the combination for 24 h and cell death was assessed by AnnexinV staining. […] A venetoclax ICso <0.1 μM is characterized as a sensitive sample.
Bone marrow aspirates or peripheral blood samples from consenting myeloma patients were diluted to 25 mL with PBS and over laid on lymphocyte separation media. Following centrifugation, the collected buffy coat was washed with PBS and resuspended in culture medium. Cells subject to various treatments were stained with anti-CD38-phyocerythrin and anti-CD45-allophycocyanin-Cy7 to identify MM cells. CD138+ cells were purified using MACS CD138+ human microbeads. IC50S of venetoclax alone or in combination with TTFA/IACS-010759 in myeloma samples were calculated using nonlinear regression (curve-fit) analysis under agonist vs. normalized response with variable slope.

[2] = tested on: MM lines (L363 and KMS11); experiment: Colony-forming unit assay in agar matrix, TTFA-venetoclax cotreatment; assay type: cell-based; settings: L363 and KMS11, venetoclax 0.1 μM
Procedure: (§1) Given the unique role of Complex II in directly connecting the TCA cycle to the ETC, the impact of selectively inhibiting either the SDH or SQR activities of Complex II on venetoclax sensitivity was tested. The venetoclax sensitization effects of TTFA (SQR inhibitor) or 3NPA (SDH inhibitor) were tested on eight venetoclax-resistant MM lines (FIG. 3A-3H). 3NPA is a structural analog of succinate, which binds irreversibly with SDH inhibiting FAD reduction and fumarate production while TTFA is a direct Qp site inhibitor. […] The efficacy of the TTFA-venetoclax cotreatment strategy was also tested in a colony-forming unit assay. MM lines (L363 and KMS11) were cultured in an agar matrix with single agents or the combination.

[3] = tested on: venetoclax-resistant MM lines; experiment: Venetoclax sensitization of resistant MM lines by ETC inhibitor cotreatment, viability by AnnexinV/DAPI staining; assay type: cell-based
Procedure: Cell viability assessed by AnnexinV/DAPI staining.
as §1
To further inquire whether Complex I inhibition could also sensitize MM cells to venetoclax, a Complex I inhibitor was tested ([…]).

[4] = tested on: non-MM cells contained within the aspirate
Procedure: Bone marrow aspirate samples from 50 MM patients were treated with three doses of venetoclax (0.01, 0.1 and 0.5 μM) or TTFA (100 μM), or the combination for 24 h and cell death was assessed by AnnexinV staining.
The efficacy of IACS-010759 in sensitizing was tested in […] patient samples to venetoclax.

O=C(CC(=O)C(F)(F)F)c1cccs1 [TTFA, 4,4,4-trifluoro-1-(2-thienyl)-1,3-butanedione]
protein expression of ATF4, NOXA (ATF4, NOXA): Increased expression of ATF4, NOXA
CS activity (citrate synthase): remained unaffected
spare respiratory capacity (SRC) (MM cell lines): concordantly reduced
cell death with combination ([1]; 100 μM TTFA plus 0.1 μM venetoclax, 24 h, 50 patient samples): significantly more cell death
samples sensitized (venetoclax IC50 <0.1 μM) ([1]; 100 μM TTFA, 15 of 50 samples): 30%
samples with more than a 50% decrease in venetoclax IC50 ([1]; 100 μM TTFA, 31 of 50 samples): 62%
samples with increased venetoclax sensitivity (IC50 Ven+TTFA vs Ven) ([1]; 100 μM TTFA, 46 of 50 samples): 92%
samples with greater than 50% reduction in venetoclax IC50 ([1]; of ten ex vivo resistant samples, TTFA treatment): seven samples
reduction in venetoclax IC50 ([1]; t(11;14) patient relapsed on venetoclax, TTFA treatment): more than tenfold reduction
increased sensitivity to venetoclax ([1]; ten ex vivo resistant samples with high SQR activity, TTFA treatment): all ten resistant samples showed increased sensitivity
sensitization to venetoclax, cellular viability in colony-forming unit assay [2]: sensitized MM lines to a lower dose of venetoclax
sensitization to venetoclax ([3]; KMS21BM, TTFA at 100 μM): does not sensitize these cells to venetoclax
sensitization to venetoclax ([3]; L363, TTFA 100 μM, 24 h): sensitizes myeloma cell line L363 to venetoclax more effectively than inhibition of SDHA with 3-NPA
sensitivity to venetoclax on cotreatment ([3]; eight venetoclax-resistant MM lines, 24 h): increased sensitivity to venetoclax in six of the eight lines tested
viability of non-MM cells [4]: no to minimal impact on viability
